This is an account of results in publication PMC11587516 (ACS Chemical Neuroscience, 2024).

In one data set the test system is BGT1. The following applies: cited from earlier work.
Another data set concerns the target GABAA receptor. More on the design: method as in PMID 34595152. The settings on record: agonist; cited from earlier work.
The target in a further data set is T1, hBGT1 E52A (Homo sapiens, UniProt P48065, E52A).
T1 construct: host or cells: tsA201 cells (transformed HEK293), transient expression
T1 sequence (P48065 1-614 E52A): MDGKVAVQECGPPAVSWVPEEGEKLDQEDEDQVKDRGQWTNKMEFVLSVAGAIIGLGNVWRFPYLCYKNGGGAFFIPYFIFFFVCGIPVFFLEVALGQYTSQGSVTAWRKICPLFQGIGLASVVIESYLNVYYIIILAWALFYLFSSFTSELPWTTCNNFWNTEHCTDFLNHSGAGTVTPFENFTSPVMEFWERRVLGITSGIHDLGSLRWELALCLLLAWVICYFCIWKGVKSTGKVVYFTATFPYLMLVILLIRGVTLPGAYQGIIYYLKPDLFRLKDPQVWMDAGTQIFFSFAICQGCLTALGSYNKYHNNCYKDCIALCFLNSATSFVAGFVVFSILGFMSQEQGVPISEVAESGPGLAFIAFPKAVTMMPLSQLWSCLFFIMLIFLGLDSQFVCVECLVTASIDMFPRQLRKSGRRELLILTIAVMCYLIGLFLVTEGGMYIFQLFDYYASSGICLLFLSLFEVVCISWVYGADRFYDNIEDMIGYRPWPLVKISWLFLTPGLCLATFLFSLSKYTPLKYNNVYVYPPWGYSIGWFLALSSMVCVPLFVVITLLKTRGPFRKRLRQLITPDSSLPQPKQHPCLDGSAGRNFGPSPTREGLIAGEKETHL
More on the design: method as in PMID 34595152. The following applies: ref 12; cited from earlier work.

A further data set concerns the target T2, hBGT1 (Homo sapiens, UniProt P48065).
T2 construct: expressed in transfected cells
T2 sequence (P48065 1-614): T1 sequence (P48065 1-614 E52A) with A52E
The experiment in a line: [3H]GABA uptake assay, CHO cells stably expressing hBGT1. The data set is classed as cell-based. The following applies: read-out: inhibition of [3H]GABA uptake; screening concentration 100 μM; CHO cells. As to the method:
All selected compounds were tested for their ability to inhibit human BGT1 (hBGT1) function.
The CHO cells were placed in 96-well plates (approximately 50,000 cells/well) for about 24 h before the experiment. […] After incubation, cells were washed 3 times with 100 μL/well ice-cold assay buffer, 150 μL/well MicroScint20 (PerkinElmer) was subsequently added before the plate was shaken for at least 1 h. The radioactivity of each well of the plate was measured on a TopCount NXT scintillation counter. […] Data presented are the pooled data of at least three independent experiments with three technical replicates if not stated otherwise in figure legends. Concentration–response curves were fitted by nonlinear regression to the sigmoidal concentration–response model with GraphPad Prism v 9.0.

The test system of data set [1] is normal human astrocytes (NHA). The experiment in a line: Confocal imaging of astrocyte morphology after incubation in PBS (non-GABA conditions). The settings on record: 500 μM GABA with 500 μM compound 9 in PBS; 72 h. The data set is classed as cell-based. As to the method: To this end, we tested whether blocking the transport of GABA under experimental non-GABA extracellular conditions may impair the homeostasis of these cells. […] Afterward, the cells were stained to visualize actin filaments using confocal microscopy. […] Nevertheless, further kinetic studies are necessary to verify this hypothesis.
NHA was grown on a coverslip in a 35 mm culture dish. After treatment, the cells were fixed (4% paraformaldehyde) and permeabilized (0.1% Triton X-100). Then, the samples were stained with Phalloidin-Atto 565 (Sigma-Aldrich, Inc.) according to the manufacturer’s protocol. Laser confocal microscope Nikon Eclipse Ti-E A1R-Si and Nikon NIS Elements AR software were used for cell imaging.

The test system of data set [2] is SH-SY5Y neuroblastoma cells. The following applies: 24 h. How it is done: The model used mimics certain aspects of neurodegenerative diseases, where GABAergic dysfunction and neuronal death are prominent features. […] The neuroprotection studies were performed to determine the ability of compound 9 to prevent MPP^+ (1-methyl-4-phenylpyridinium) toxicity at a concentration of 1 mM, which was coincubated with compound 9 for 24 h. MPP^+ is a well-established neurotoxin that selectively damages neurons, making it a commonly used agent to model aspects of neurodegenerative conditions in vitro. It induces oxidative stress and mitochondrial dysfunction, leading to cell death. Cell viability was detected by a standard MTS assay.
Neuroprotection studies were performed according to the procedure described previously.[27] In brief, SH-SY5Y CRL-2266 (American Type Culture Collection, Manassas, VG) were seeded in microplate at a concentration of 2.5 × 10^4 cells/well in 100 μL of culture medium and cultured for 24 h at 37 °C and 5% CO2. […] Next, MPP^+ was added at a final concentration of 1 mM and the cells were placed in the incubator. After 24 h of the compound coincubation with MPP^+, the CellTiter 96 AQueous Nonradioactive Cell Proliferation Assay (MTS) was performed. The test was purchased from Promega (Madison, WI). The absorbance was measured using a microplate reader EnSpire (PerkinElmer, Waltham, MA) at 490 nm. All results were shown as mean ± SD. The statistical significances were calculated by GraphPad Prism 6.0 software.

The subject of data set [3] is SH-SY5Y neuroblastoma cells. The experiment in a line: SH-SY5Y viability, MTS assay, 72 h. The data set is classed as cell-based, human. The following applies: 1 µM, reference cytostatic drug. From the text: OC(=O)[C@H]1CNCC[C@@H]1S OC(=O)CCCCCCN1C=CN=C1
OC(=O)C1CCNCC1 N[C@]12C[C@H]1[C@@H](CC2)C(O)=O
OC(=O)C1=CCNCC1 N[C@H]1C[C@@H]1CC(O)=O
O[C@@H]1CNCC[C@H]1C(O)=O N[C@@H]1C[C@@H]1CC(O)=O
OC(=O)CCCC1=NC=CN1 N[C@H]1C[C@H]1CC(O)=O
OC(=O)\C=C\C1=NC=CN1 NC[C@H]1C[C@H]1C(O)=O
OC(=O)\C=C\C1=CNC=N1 NC[C@@H]1C[C@@H]1C(O)=O
OC(=O)\C=C\C1=CN=CN1 NC[C@@H]1C[C@H]1C(O)=O
OC(=O)CCC1=CNC=N1 NC[C@H]1C[C@@H]1C(O)=O
OC(=O)CCC1=CN=CN1 NC1=CC=C(C=N1)C(O)=O
OC(=O)CCN1C=CN=C1 NC1=NC=C(C=N1)C(O)=O
OC(=O)CCCC1=NC=CN1 NC(=N)N1CCC(CC1)C(O)=O
S2. IC50 determination at GAT3 stable GAT3-CHO, compound 9
Figure S1. IC 50 determination for compound 9. Data represent one of three independent experiments, each performed in three technical replicates.
S3. […]
The influence of compound 9 on viability of SH-SY5Y neuroblastoma cells was determined using Aqueous Non-Radioactive Cell Proliferation Assay. […] Upon adding MTS and following 2h incubation, cell viability was calculated and […]
The effect of compound 9 on viability and proliferation of SH-SY5Y was determined with CellTiter 96® Aqueous Non-Radioactive Cell Proliferation Assay (MTS, Promega, Madison, WI, USA). […] Next MTS was added in fresh medium and after 2h of incubation the absorbance was measured at 490 nm using a microplate reader EnSpire (PerkinElmer, Waltham, MA USA). All results were shown as mean ± SD calculated from two independent experiments. […]
On the technique in general: Formazan colour is commonly taken as a measure of viable cells.

For the next data set, the system named is mouse models. The settings on record: cited from earlier work.

Changes are numbered by the printed parent chain. Like-named read-outs stand apart in the source and are kept apart here.

As to `N[C@@]12CC[C@H](C(=O)O)[C@@H]1C2` [bicyclo-GABA, (1S,2S,5R)-5-aminobicyclo[3.1.0]hexane-2-carboxylic acid], the values for the IC50 in the data set with BGT1 (ref 11) and in the data set on BGT1 (ref 12) were 590 nM and 1500 nM, respectively. Moreover, the EC50 – broadly, the concentration giving half of the maximal effect – at GABAA receptor was 5100 nM. Besides, the “change in activity on substitution of Glu52 with alanine” value on hBGT1 E52A is recorded as “drastic increase in activity”.
For the compound `O=C(O)CC1CNCCO1` (stereo not drawn) [Compound 3], the inhibition (commonly the share of the control response that was lost under treatment) at 100 µM on hBGT1 was 40%.
Same read-out and setting: next, `NCc1cc(C(=O)O)[nH]n1` [Compound 11]: 26%.
Turning to `NCCCC(=O)O` [GABA, γ-Aminobutyric acid, reference compound], the “effect on compound 9-induced morphological changes of astrocytes” value in data set [1] was “prevented these changes”. For the same compound, the “cell viability compared to MPP+ alone” value in data set [2] (GABA 10 μM, positive control, 1 mM MPP+) was “significantly increased cell viability”.
In the case of `COc1cccc2c1C(=O)c1c(O)c3c(c(O)c1C2=O)C[C@@](O)(C(=O)CO)C[C@@H]3O[C@H]1C[C@H](N)[C@H](O)[C@H](C)O1` [doxorubicin, reference compound], the “impact on SH-SY5Y viability” value in data set [3] is “significantly decreased SH-SY5Y viability”.
For `C[n+]1ccc(-c2ccccc2)cc1` [MPP^+, 1-methyl-4-phenylpyridinium, reference compound], the “viability of SH-SY5Y cells” value in data set [2] (neurotoxin 1 mM) was “significantly reduced the viability”.
Regarding `Cc1ccsc1C(=CCCN(C)C1CCCc2o[nH]c(=O)c21)c1sccc1C` (stereo not drawn) [EF1502], in the data set on mouse models (ref 13), the anticonvulsant properties result is listed as “anticonvulsant properties”. For the same compound, the “anticonvulsant effect when coadministered with tiagabine” value with mouse models (ref 14) is reported as “synergistic effect”.
